Source: the METLIN SMRT retention time set (Domingo-Almenara et al. 2019)

Experiment: gradient 5% acetonitrile 3 min, to 50% in 2 min, to 85% in 15 min, held 3 min, 100 µL/min
Settings: column: Zorbax Extend-C18 2.1 x 50 mm; eluents: water / acetonitrile, 0.1% formic acid
In short: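 Over 3 months, pure standards in mixtures of ~100 molecules were run by HPLC coupled to a quadrupole time-of-flight mass spectrometer in positive and negative ionization mode. The column was a Zorbax Extend-C18 (2.1 × 50 mm, 1.8 μm) at 100 μL/min, eluted with water and acetonitrile each holding 0.1% formic acid, with 40 μL dead and 900 μL dwell volumes. Retention time was determined from adduct peaks chosen by software and checked manually.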

| Compound | RP-LC retention time [s] |
| --- | --- |
| CCCCN(C)C(=O)c1cc(NC(=O)C(C)(C)C)cnc1N1CCNCC1 | 622 |
| COc1ccc(S(=O)(=O)N2CCCN(c3ccc(=O)n(-c4ccc(C)c(C)c4)n3)CC2)cc1 | 903 |
| CC1CCCN(c2ccc(-c3noc(CN4CCc5ccccc5C4)n3)cn2)C1 (stereo not drawn) | 970 |
| COc1ccccc1NC(=O)c1c(O)c2cccnc2n(-c2ccc(F)cc2)c1=O | 864 |
| CCN1CCCC1CNC(=O)c1nc(CCS(=O)(=O)c2ccc(OC)cc2)no1 (stereo not drawn) | 622 |
| Cc1ccc(C(=O)Nc2ccc3c(c2)Sc2ncccc2C(=O)N3C(C)C)s1 | 886 |
| COc1ccc(CC(=O)Nc2cc(-c3cccnc3)no2)cc1 | 708 |
| CCc1ccccc1NC(=O)CSc1nc2nc(C)cc(C)n2n1 | 732 |
| Cc1cc(C)c(S(=O)(=O)N2CCC(C(=O)NCc3csc(-c4ccccc4)n3)CC2)cc1C | 1050 |
| CCn1c(SC)nnc1-c1nn(C)c2c1CN(C(C)=O)CC2 | 664 |
| CCOc1ccccc1CNC(=O)C1CCN(Cc2cn(CC)c3ccc(OC)cc23)CC1 | 759 |
| COc1cccc(Cn2cc(S(=O)(=O)N3CCCCC3)ccc2=O)c1 | 882 |
| COc1ccc(-n2cc(C(=O)Nc3cnc4ccccc4c3)nn2)cc1 | 821 |
| Cc1ccc(C)c(S(=O)(=O)Nc2ccc(N3CCN(c4ccccn4)CC3)c(C(=O)O)c2)c1 | 660 |
| c1ccc(-c2nc(-c3ccncc3)no2)c(OC2CCN(C3CCCC3)C2)c1 (stereo not drawn) | 667 |
| CC(C(=O)NCCCN1CCC(N2CCCCC2)CC1)n1c(=O)c(C(F)(F)F)nc2ccccc21 (stereo not drawn) | 595 |
| CCOc1ccc(-c2cc3c(=O)n(Cc4nc(-c5ccccc5)no4)ncn3n2)cc1 | 720 |
| CCOc1ccc(NC(=O)C2CCCN2S(=O)(=O)c2cc3c(cc2Cl)NC(=O)CO3)cc1 (stereo not drawn) | 785 |
| Cc1cc2nn(CC(=O)Nc3cccc(C(C)C)c3)c(=O)n2c(-c2ccccc2)n1 | 955 |
| Cc1ccc(C)c2sc(NC(=O)c3cccc(N4C(=O)CCC4=O)c3)nc12 | 852 |
| CC(C)OCCCNC(=O)c1nnc(-c2ccc(S(=O)(=O)N3CCOCC3)cc2)o1 | 784 |
| Cc1ccc(NC(=O)C2CCCN(c3nc4ccccc4nc3C(F)(F)F)C2)c(C)c1 (stereo not drawn) | 1230 |

| Compound | RP-LC retention time [s] |
| --- | --- |
| Cc1cccc2c1NC(=O)C2(O)CC(=O)c1ccc(C(C)C)cc1 (stereo not drawn) | 860 |
| O=C(NC1CC1)C1CCN(S(=O)(=O)c2ccc3[nH]c4c(c3c2)CCCCC4)CC1 | 862 |
| O=C(N[C@@H]1CN(c2ccncn2)C[C@H]1CO)c1ccc2ccccc2n1 | 604 |
| CN(CCc1ccc(Cl)c(Cl)c1)CCN1CCCC1 | 646 |
| CC(C)c1ccc(S(=O)(=O)N2CCc3c(c(-c4nnc(-c5ccccc5)o4)nn3C)C2)cc1 | 1110 |
| COc1cc2c(cc1OC)CN(C(=O)CSc1ncnc3sc(C)c(C)c13)CC2 | 851 |
| Cc1ccc(NC(=O)Cn2c(=O)c3cc(C4CC4)nn3c3ncccc32)c(C)c1 | 808 |
| Cc1nc2ccc3nc(NC(=O)COc4ccccc4F)sc3c2s1 | 877 |
| Cn1cnc2ccc(-c3noc(CNC(=O)c4ccccc4)n3)cc21 | 624 |
| Cc1ccccc1-c1noc(-c2cccnc2N2CCN(C)CC2)n1 | 670 |
| O=C(Nc1ccc(Cl)cc1)N1CCC(N2CCN(Cc3ccccc3)C(=O)C2=O)CC1 | 764 |
| CCCn1ccc2sc(C)c(C(=O)NCc3cc(C)ccc3C)c2c1=O | 1020 |
| COc1ccc(S(=O)(=O)N2CCCC(C(=O)Nc3ccccc3F)C2)cc1Cl (stereo not drawn) | 985 |
| O=C(CSc1ccc(N2CCCC(C(=O)NC3CC3)C2)nn1)Nc1cc(F)ccc1F (stereo not drawn) | 617 |
| Cc1ccc(-c2noc(Cn3c(=O)n(CC4CCCO4)c(=O)c4ccccc43)n2)cc1 (stereo not drawn) | 1040 |
| OC(c1ccccc1)(c1ccccc1)c1nccn1-c1ccccc1 | 754 |
| Cc1ccc(-c2cn3ccccc3n2)cc1NS(=O)(=O)c1ccc(F)cc1 | 665 |
| Cn1ncc2c(N3CCN(c4ccccc4F)CC3)ncnc21 | 858 |
| CCc1cccc(NC(=O)Cn2c(=O)n(-c3ccc(F)cc3)c(=O)c3c2cc(C)n3C)c1 | 914 |
| O=C(NCCN1CCCCCC1)c1csc(-c2ccnc(N3CCOCC3)c2)n1 | 569 |
| COc1ccc(CNS(=O)(=O)c2cc(-c3nc(C(C)C)cs3)sc2C)cc1 | 1180 |
| CCc1ccccc1NC(=O)CSc1nccc(N2CCN(c3cc(C)ccc3C)CC2)n1 | 1060 |

| Compound | RP-LC retention time [s] |
| --- | --- |
| CNC(=O)c1cc(N2CCCC2)nc2c(C)cccc12 | 567 |
| Cc1nc2cc(-c3noc(-c4cc(Cl)ccc4Cl)n3)ccc2o1 | 1290 |
| Cc1ccc(-c2cc3c(N4CCC(C(=O)NC5CCCC5)CC4)nccn3n2)c(C)c1 | 849 |
| CCOC(=O)C1CCN(C(=O)C2CCN(S(=O)(=O)c3cc(Cl)ccc3OCC)CC2)CC1 | 936 |
| Cc1nc(C)c(C(=O)Nc2ccc(C)c(F)c2)s1 | 860 |
| CCc1ccc(NC(=O)N2CCN(c3cc(C)nc(N4CCOCC4)n3)CC2)cc1 | 668 |
| CN1C(=O)c2cc(C(=O)NCCCN3CCCC3)nn2CC1(C)C(=O)NCc1ccccc1 (stereo not drawn) | 589 |
| CCCCn1cc(S(=O)(=O)NCc2ccccc2)c2cccnc21 | 946 |
| CCCS(=O)(=O)N1CCCN(C2=NS(=O)(=O)C(c3ccccc3)=C2C)CC1 | 839 |
| CC(C)(C)c1csc(NC(=O)c2ccc3c(c2)OCCO3)n1 | 976 |
| O=C(c1cnccn1)N1CCC(N2C(=O)C(OCC3CC3)C23CCCCC3)CC1 (stereo not drawn) | 752 |
| O=C(Nc1ccc(S(=O)(=O)Nc2nccs2)cc1)c1ccco1 | 616 |
| Cc1ccc(-c2cc3c(=O)n(Cc4noc(CN5CCN(C)CC5)n4)ccn3n2)cc1C | 662 |
| CCOC(=O)c1c(C)[nH]c(C(=O)N2CCC(CC(=O)N3CCCC3)CC2)c1C | 694 |
| COC(=O)c1c(C)c(C(=O)C(C)N(C(=O)c2ccccc2Cl)C(C)C)c(C)n1C (stereo not drawn) | 975 |
| CCOc1cccc(CNc2c(-c3nc(C)no3)cnc3nc(C)ccc23)c1 | 724 |
| CC1=C(c2cccc(Cl)c2)S(=O)(=O)N=C1N1CCCN(C(=O)NC(C)C)CC1 | 802 |
| c1ccc(-c2noc(-c3cc(N4CCOCC4)nc4ccccc34)n2)cc1 | 1240 |
| COc1ccc(-c2cn3ccn(-c4ccc(Cl)cc4)c(=O)c3n2)cc1OC | 887 |
| COc1ccccc1-n1ccn2cc(-c3ccc4c(c3)OCO4)nc2c1=O | 776 |
| CCCNC(=O)NCCC1CCN(S(=O)(=O)c2ccc(F)cc2)CC1 | 771 |
| CN1C(=O)c2cc(C(=O)N3CCCCCC3)nn2CC1(C)C(=O)NC1CCCC1 (stereo not drawn) | 714 |

| Compound | RP-LC retention time [s] |
| --- | --- |
| CO[C@H]1C(=O)N(C2CCN(S(=O)(=O)Cc3ccccc3)CC2)[C@H]1c1ccncc1 | 632 |
| CCN(CC)C(=O)c1ccc2c(c1)N(Cc1ccc(F)cc1)C(=O)CO2 | 826 |
| COc1cccc(CNC(=O)C2CCc3nc(N4CCCCC4)ncc3C2)c1 (stereo not drawn) | 665 |
| COc1ccc(OC)c(S(=O)(=O)NCC(O)Cc2ccccc2)c1 (stereo not drawn) | 736 |
| CCOc1ccc2cccc(NC(=O)c3cnccn3)c2n1 | 1080 |
| COc1cc(CC(=O)N2CCN(c3cc(C)n4c(C)nnc4n3)CC2)cc(OC)c1 | 576 |
| Cc1ccc(C)c(CNS(=O)(=O)c2cc(-c3[nH]ncc3C(=O)N3CCCC3)oc2C)c1 | 835 |
| O=C(NC1CCN(c2nnc3ccccn23)CC1)c1ccc2c(c1)OCO2 | 628 |
| O=C(c1ccccc1)C1N=NCC1c1ccc(Cl)cc1 (stereo not drawn) | 1040 |
| CC(CCNC(=O)CN1C(=O)CCn2nc(-c3cn(C)c4ccccc34)cc21)N1CCCC1 (stereo not drawn) | 616 |
| Cc1cccn2c(Nc3ccc4c(c3)OCCO4)c(-c3ccccc3O)nc12 | 719 |
| Cc1nnc(-c2ccc3ccn(CC(=O)Nc4cccc(CN5CCCC5)c4)c3c2)o1 | 610 |
| Cc1ccc(CNC(=O)c2nc3cccnc3n(CC(C)C)c2=O)cc1 | 1010 |
| COc1cc(OC)c(NC(=O)C2CCCN(C(=O)c3cc(C)cc(C)c3)C2)cc1Cl (stereo not drawn) | 1010 |
| CCn1cnc(S(=O)(=O)N2CCC(C(=O)NCc3ccc(Br)cc3)CC2)c1 | 747 |
| COc1ccc(-c2ncc3c(n2)CCN(C(=O)c2ccc(C(F)(F)F)cc2)C3)cc1 | 1010 |
| Cc1nc2c(sc3cccc(F)c32)c(=O)n1CC(=O)Nc1ccccc1C(F)(F)F | 841 |
| CCCC(CCC)C(=O)N1CCCN(C2=NS(=O)(=O)C(c3ccc(F)cc3)=C2C)CC1 | 972 |
| Cc1ccc(C(O)Cn2ccn3nc(-c4ccc(F)cc4)cc3c2=O)cc1 (stereo not drawn) | 966 |
| Cc1c(-c2noc(C(=O)NCCN3CCCC3)n2)oc2c(C)cccc12 | 668 |
| CCOCCCNC(=O)CN1c2ccc(F)cc2-c2ccccc2S1(=O)=O | 820 |
| Cc1cc(C)c(S(=O)(=O)NCCn2c(C)cnc2C2CCC2)cc1C | 696 |
